Reference: US12673120B2, “Fluorescently-traceable amino acid derivative and preparation methods and use thereof” (priority 2020, dated 2026)
Structures can show the parent of a compound that is named as a salt. Where two headings read alike, the source gives them in different places.

What was measured:
[1] = tested on: A549 (human non-small cell lung cancer cells); test: In vitro anti-tumor cell proliferation activity (MTT method), A549; assay type: cell-based; details: read-out: IC50 values of in vitro anti-cell proliferation activity
Experimental: (§1) Tested cell lines S180 (mouse ascites tumor cells), LLC (mouse lung cancer cells), A549 (human non-small cell lung cancer cells), HCT116 (human colon cancer cells), U2Os (human osteosarcoma cells), and MCF-7 (human breast cancer cells) each were purchased from Nanjing KeyGen Biotech.
(§2) When preparing a test sample, the test compound was prepared into a sample solution with a concentration of 500 μM (with a final concentration 100 μM) by a PBS buffer containing 0.5% DMSO, which was used for preliminary screening of an anti-cell proliferation experiment in vitro.
(§3) Positive control group: doxorubicin, prepared to a required concentration with PBS buffer containing 0.5% DMSO; negative control group: a PBS buffer containing 0.5% DMSO; blank group: a PBS buffer containing 0.01% DMSO.

[2] = tested on: U2Os (human osteosarcoma cells); test: In vitro anti-tumor cell proliferation activity (MTT method), U2Os; assay type: cell-based; details: 48 h, read-out: IC50 values of in vitro anti-cell proliferation activity
Experimental: as §1, §2, §3

[3] = tested on: LLC (mouse lung cancer cells); test: In vitro anti-tumor cell proliferation activity (MTT method), LLC; assay type: cell-based; details: 48 h, read-out: IC50 values of in vitro anti-cell proliferation activity
Experimental: as §1, §2, §3

[4] = tested on: HCT116 (human colon cancer cells); test: In vitro anti-tumor cell proliferation activity (MTT method), HCT116; assay type: cell-based; details: read-out: IC50 values of in vitro anti-cell proliferation activity
Experimental: as §1, §2, §3

[5] = tested on: S180 (mouse ascites tumor cells); test: In vitro anti-tumor cell proliferation activity (MTT method), S180; assay type: cell-based; details: read-out: IC50 values of in vitro anti-cell proliferation activity
Experimental: as §1, §2, §3

[6] = tested on: MCF-7 (human breast cancer cells); test: In vitro anti-tumor cell proliferation activity (MTT method), MCF-7; assay type: cell-based; details: read-out: IC50 values of in vitro anti-cell proliferation activity
Experimental: as §1, §2, §3

[7] = tested on: mouse S180 sarcoma model; test: Inhibition of tumor growth in vivo (mouse S180 sarcoma model); parameters: species or system male ICR mice; details: for Average tumor weight: Mean ± SD, n 10
Experimental: The mice used in the experiment were male ICR mice of SPF grade, weighing 20 g±2 g, purchased from Beijing Vital River Laboratory Animal Technology Co., Ltd., and raised in an animal barrier of the Experimental Animal Department of Capital Medical University.
The specific method included: drugs were administered to tumor-forming mice by group for 7 consecutive days, a length of the tumor was measured every other day to calculate a tumor volume. 24 h after the last administration, the mice were weighed, anesthetized with diethyl ether, and eyeballs were removed to collect blood; the obtained whole blood was centrifuged at 1,000 rpm for 10 min, and a serum was absorbed for later use. The mice were sacrificed by neck dislocation, and the tumor mass and various organs were stripped and weighed (it was ensured that the operation was done as soon as possible and the stripping was complete and clean). The tumor inhibition rate was calculated by formula b, the results were shown in Table 2 and FIG. 2; and by calculating a viscera-weight ratio of each organ, and it was analyzed whether the test compound had obvious physiological effects on the mouse organs.

[8] = Table 2, 2 μmol/kg, ip, 7 consecutive days
[9] = Table 2, 10 μmol/kg, ip, 7 consecutive days

Row | Compound | IC50 ([1]; A549, 48 h, Mean ± SD) [µM] | IC50 ([2]; U2Os, Mean ± SD) [µM] | IC50 ([3]; LLC, Mean ± SD) [µM] | IC50 ([4]; HCT116, 48 h, Mean ± SD) [µM] | IC50 ([5]; S180, 48 h, Mean ± SD) [µM] | IC50 ([6]; MCF-7, 48 h, Mean ± SD) [µM] | Tumor Inhibition Rate [7, 9] [%] | Average tumor weight [7, 9] [g] | other results
1 | NCCCC[C@H](Nc1ccc([N+](=O)[O-])c2nonc12)C(=O)NCc1ccccc1 [ZD-F, NBD-Lys(HCl)-NBzl] | > 100 | > 100 | > 100 | > 100 | > 100 | > 100 | – | – | –
2 | COc1cccc2c1C(=O)c1c(O)c3c(c(O)c1C2=O)C[C@@](O)(C(=O)CO)C[C@@H]3O[C@H]1C[C@H](N)[C@H](O)[C@H](C)O1 [DOX, doxorubicin, reference compound] | – | – | – | – | – | – | – | – | IC50 ([1]; Homo sapiens, A549, 48 h, Mean ± SD): 0.229 ± 0.052 µM; IC50 ([2]; Homo sapiens, U2Os, Mean ± SD): 1.2 ± 0.034 µM; IC50 ([3]; Mus musculus, LLC, Mean ± SD): 0.19 ± 0.095 µM; IC50 ([4]; Homo sapiens, HCT-116, HCT116, 48 h, Mean ± SD): 0.375 ± 0.108 µM; IC50 ([5]; Mus musculus, S-180, S180, 48 h, Mean ± SD): 0.49 ± 0.092 µM; IC50 ([6]; Homo sapiens, MCF7, MCF-7, 48 h, Mean ± SD): 1.03 ± 0.188 µM; Tumor Inhibition Rate [7, 8]: 51.80%; Average tumor weight [7, 8]: 0.861 ± 0.462 g
3 | NCCC[C@H](Nc1ccc([N+](=O)[O-])c2nonc12)C(=O)NCc1ccccc1 [ZD-E, (S)-5-amino-N-benzyl-2-((7-nitro-2,1,3-benzoxadiazol-4-yl)amino)pentaneamide] | – | – | – | – | – | – | 25.82 | 1.326 ± 0.685 | IC50 ([1]; Homo sapiens, A549, 48 h): > 100 µM; IC50 ([2]; Homo sapiens, U2OS): 60.5 ± 0.969 µM; IC50 ([3]; Mus musculus): > 100 µM; IC50 ([4]; Homo sapiens, HCT-116, 48 h): 49.7 ± 4.17 µM; IC50 ([5]; Mus musculus, S-180, 48 h): 66 ± 2.61 µM; IC50 ([6]; Homo sapiens, MCF7, 48 h): 85.2 ± 6.1 µM
4 | O=C1NCCC[C@@H]1Nc1ccc([N+](=O)[O-])c2nonc12 [ZD-D, NBD-Orn(cycto)] | > 100 | > 100 | > 100 | > 100 | > 100 | > 100 | 25.77 | 1.326 ± 0.318 | –
5 | CS(=O)(=O)NCCNc1ccc([N+](=O)[O-])c2nonc12 [ZD-C, NBD-N-(2-aminoethyl)methanesulfonamide] | > 100 | > 100 | > 100 | > 100 | > 100 | > 100 | 29.46 | 1.260 ± 0.466 | Average tumor weight compared with Vehicle group (one-way analysis of variance) ([7]; 10 μmol/kg, ip): different from that of Vehicle group
6 | CN(C)c1ccc2cc(C(=O)NC(CCCNC(=N)CCl)C(=O)NCc3ccccc3)ccc2c1 (stereo not shown) [YW3-56, N-(1-(benzylamino)-5-(2-chlorooxalimide)-1-oxopentan-2-yl)-6-(dimethylamino)-2-naphthylamide, reference compound] | – | – | – | – | – | – | 44.39 | 0.994 ± 0.310 | Tumor Inhibition Rate ([7]; Table 3, 10 μmol/kg, iv): 44.38%; Average tumor weight ([7]; Table 3, 10 μmol/kg, iv): 0.954 ± 0.298 g
